Here are results for 20 compounds from patent US12421249B2, “Inhibitors of APOL1 and methods of using same” (Vertex Pharmaceuticals Incorporated, priority 2020, dated 2025).

One assay concerns the target T1, APOL1 G1 (Homo sapiens, UniProt O14791, I384M/S342G).
T1 sequence (O14791 28-398 S342G/I384M): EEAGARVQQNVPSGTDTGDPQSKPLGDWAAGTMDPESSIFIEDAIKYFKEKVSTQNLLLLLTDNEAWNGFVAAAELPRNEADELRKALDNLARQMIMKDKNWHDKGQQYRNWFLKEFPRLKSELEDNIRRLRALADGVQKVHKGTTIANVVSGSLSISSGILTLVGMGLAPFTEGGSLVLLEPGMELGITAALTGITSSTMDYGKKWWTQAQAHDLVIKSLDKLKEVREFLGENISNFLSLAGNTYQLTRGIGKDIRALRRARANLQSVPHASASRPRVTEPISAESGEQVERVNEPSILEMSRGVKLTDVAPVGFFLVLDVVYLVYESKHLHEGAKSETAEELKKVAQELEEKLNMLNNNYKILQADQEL
The experiment in a line: Trypanosoma brucei brucei Lysis Assay Using APOL1 Recombinant Protein (AlamarBlue viability readout). Format: cell-based. As to conditions: Trypanosome Assay; for IC50: IP50 = IC50 for cell proliferation, read-out: Trypanosome Assay IP50; for Emax: read-out: Trypanosome Assay Max Activity (%). The method, boiled down:
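Percent viability comes from AlamarBlue (resazurin→resorufin) fluorescence interpolated on a standard curve of known parasite numbers, with no-APOL1 wells as 100%. Parasites (Lister 427 bloodstream form, 120,000/well, serum-free assay medium) meet 0.05 μg/mL APOL1 (~EC90). Compounds span a 10-point series, 0.1% DMSO final.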

The target of the next assay is T2, APOL1 (Homo sapiens, UniProt O14791).
T2 sequence (O14791 1-398 S342G/I384M): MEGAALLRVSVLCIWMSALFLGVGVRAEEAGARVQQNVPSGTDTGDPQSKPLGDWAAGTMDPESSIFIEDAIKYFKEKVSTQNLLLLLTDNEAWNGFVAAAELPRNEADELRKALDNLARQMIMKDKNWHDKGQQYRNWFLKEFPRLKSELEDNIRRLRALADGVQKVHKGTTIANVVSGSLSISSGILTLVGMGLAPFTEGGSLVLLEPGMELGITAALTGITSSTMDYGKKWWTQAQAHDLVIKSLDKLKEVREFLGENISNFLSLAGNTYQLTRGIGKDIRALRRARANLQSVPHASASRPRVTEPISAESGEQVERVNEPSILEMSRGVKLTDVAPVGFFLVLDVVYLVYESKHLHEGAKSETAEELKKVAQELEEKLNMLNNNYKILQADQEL
Description: Multi-Tox Assay (MultiTox-Fluor Multiplex Cytotoxicity Assay in tet-inducible APOL1 T-REx-HEK293 cells; Table 46 does not say which APOL1 variant G0/G1/G2). Format: cell-based. The following applies: APOL1 variant not given; for IC50: IP50 = IC50 for cell proliferation.

On to `CC1CC2(CC(c3cncnc3)N1)OCCc1cc(Cl)sc12` (centres unmarked) [Compound 45], for which, at APOL1 G1, the IC50 is < 50 nM and the Emax amounted to 103%. Moreover, on APOL1, the “Multi-Tox Assay Max Activity (%)” value worked out at 100.0% and the IC50 is < 50 nM.
Turning to `CC1CC2(CC(c3cnn(CCS(C)(=O)=O)c3)N1)OCCc1cc(Cl)sc12` (centres unmarked) [Compound 46], at APOL1 G1, the IC50 was < 50 nM and the Emax was 108%. Besides, at APOL1, the “Multi-Tox Assay Max Activity (%)” value is reported as 99.0% and the IC50 is < 50 nM.
On to `CC1CC2(CC(c3cn(CC4CC4)nn3)N1)OCCc1cc(Cl)sc12` (centres unmarked) [Compound 122], for which, on APOL1 G1, the IC50 lay in the range of 50 to 500 nM and the Emax came to 106%. For the same compound, the IC50 on APOL1 was < 50 nM.
In the case of `C[C@H]1C[C@@]2(C[C@@H](c3cn(C)nn3)N1)OC[C@@H](O)c1cc(Cl)sc12` [Compound 174, (2′S,4S,6′S,7S)-2-chloro-2′-methyl-6′-(1-methyltriazol-4-yl)spiro[4,5-dihydrothieno[2,3-c]pyran-7,4′-piperidine]-4-ol], on APOL1 G1, the IC50 is < 50 nM and the Emax was found to be 104%. In addition, the IC50 at APOL1 was < 50 nM.
Consider `C[C@H]1C[C@@]2(C[C@@H](c3cn(C)nn3)N1)OC[C@H](O)c1cc(C(F)(F)F)sc12` [Compound 180], for which the IC50 on APOL1 G1 and against APOL1 was < 50 nM each time. Besides, the Emax on APOL1 G1 came to 102%.
Consider `C[C@H]1C[C@@]2(C[C@@H](c3cn(C)nn3)N1)OC[C@@H](O)c1cc(C(F)(F)F)sc12` [Compound 181, (2S,4S,4′S,6S)-2-methyl-6-(1-methyl-1H-1,2,3-triazol-4-yl)-2′-(trifluoromethyl)-4′,5′-dihydrospiro[piperidine-4,7′-thieno[2,3-c]pyran]-4′-ol], for which, on APOL1 G1, the IC50 was < 50 nM and the Emax came out at 102%. Further, the IC50 against APOL1 is < 50 nM.
In the case of `C[C@H]1C[C@@]2(C[C@@H](c3cn(C)nn3)N1)OC[C@@H](O)c1sc(Cl)cc12` [Compound 182], at APOL1 G1, the IC50 is < 50 nM and the Emax came to 113%. At APOL1, the IC50 is < 50 nM.
Take `C[C@H]1C[C@@]2(C[C@@H](c3cn(C)nn3)N1)OCC(F)(F)c1cc(Cl)sc12` [Compound 183, (2′S,6′S,7S)-2-chloro-4,4-difluoro-2′-methyl-6′-(1-methyltriazol-4-yl)spiro[5H-thieno[2,3-c]pyran-7,4′-piperidine]]: at APOL1 G1, the IC50 was in the range of 50 to 500 nM and the Emax amounted to 106%. For the same compound, the IC50 against APOL1 was < 50 nM.
What is called IC90 is the point of the concentration-response curve where the effect stands at 90%. With `CCC1CC2(CC(c3cn(C)nn3)N1)OCCc1cc(Cl)sc12` (centres unmarked) [Compound 186, 2-chloro-2′-ethyl-6′-(1-methyltriazol-4-yl)spiro[4,5-dihydrothieno[2,3-c]pyran-7,4′-piperidine]], at APOL1 G1, the IC50 lay within 50 to 500 nM and the Emax came out at 104%. Further, on APOL1, the IC90 was in the range of 50 to 500 nM, the “Multi-Tox Assay Max Activity (%)” value is given as 99.3% and the IC50 is < 50 nM.
Regarding `CCC1CC2(CC(c3cn(C)nn3)N1)OCCc1cc(C(F)(F)F)sc12` (centres unmarked) [Compound 187, 2′-ethyl-6′-(1-methyltriazol-4-yl)-2-(trifluoromethyl)spiro[4,5-dihydrothieno[2,3-c]pyran-7,4′-piperidine]], at APOL1 G1, the IC50 was in the range of 50 to 500 nM and the Emax stood at 106%. For the same compound, on APOL1, the IC90 was < 50 nM, the “Multi-Tox Assay Max Activity (%)” value worked out at 100.0% and the IC50 was < 50 nM.
For `CC(C)C1CC2(CC(c3cn(C)nn3)N1)OCCc1cc(Cl)sc12` (centres unmarked) [Compound 188], at APOL1 G1, the IC50 is 50 to 500 nM and the Emax was determined as 108%. For the same compound, on APOL1, the IC90 lay in the range of 50 to 500 nM, the “Multi-Tox Assay Max Activity (%)” value turned out to be 99.0% and the IC50 was 50 to 500 nM.
In the case of `Cn1cc(C2CC3(CC(C4CCC4)N2)OCCc2cc(Cl)sc23)nn1` (centres unmarked) [Compound 189], the IC50 is > 500 nM on APOL1 G1 and 50 to 500 nM at APOL1. Also, the Emax at APOL1 G1 came to 87.5%.
With `COCC1CC2(CC(c3cn(C)nn3)N1)OCCc1cc(Cl)sc12` (centres unmarked) [Compound 190], the IC50 was > 500 nM at APOL1 G1 and 50 to 500 nM at APOL1. Further, the Emax at APOL1 G1 came to 92.5%.
Turning to `CC(C)C1CC2(CC(c3cn(C)nn3)N1)OCCc1cc(C(F)(F)F)sc12` (centres unmarked) [Compound 191], at APOL1 G1, the IC50 lay in the range of 50 to 500 nM and the Emax amounted to 108%. At APOL1, this compound came in with an IC50 of 50 to 500 nM.
With `Cn1cc(C2CC3(CC(C4CCC4)N2)OCCc2cc(C(F)(F)F)sc23)nn1` (centres unmarked) [Compound 192], at APOL1 G1, the IC50 lay within 50 to 500 nM and the Emax worked out at 100%. The compound also yielded an IC50 against APOL1 of 50 to 500 nM.
Consider `COCC1CC2(CC(c3cn(C)nn3)N1)OCCc1cc(C(F)(F)F)sc12` (centres unmarked) [Compound 193], for which the IC50 at APOL1 G1 and against APOL1 was 50 to 500 nM each time. In addition, the Emax at APOL1 G1 stood at 100%.
Take `C[C@H]1CC2(C[C@H](C)N1)OCCc1sc(C(F)(F)F)cc12` (some centres unmarked) [Compound 195]: the IC50 at APOL1 G1 and against APOL1 was > 500 nM each time. Besides, at APOL1 G1, the Emax was 50.7%.
Take `COC(=O)[C@@H]1C[C@]2(C[C@H](C)N1)OCCc1cc(Cl)sc12` [Compound 209, methyl (2′S,6′S,7S)-2-chloro-6′-methyl-spiro[4,5-dihydrothieno[2,3-c]pyran-7,4′-piperidine]-2′-carboxylate]: on APOL1 G1, the IC50 lay in the range of 50 to 500 nM and the Emax stood at 100%. Besides, at APOL1, the IC50 is > 500 nM.
In the case of `C[C@H]1C[C@@]2(C[C@@H](CC3CCOCC3)N1)OCCc1cc(Cl)sc12` [Compound 219, (2S,6R)-2-chloro-2′-methyl-6′-(tetrahydropyran-4-ylmethyl)spiro[4,5-dihydrothieno[2,3-c]pyran-7,4′-piperidine]], at APOL1 G1, the IC50 is > 500 nM and the Emax turned out to be 71%. Further, on APOL1, the IC50 is > 500 nM.
Take `C[C@H]1C[C@@]2(C[C@@H](C3CC3)N1)OCC(O)c1cc(Cl)sc12` (stereo partly drawn) [Compound 220, (2S,6S)-2-chloro-2′-cyclopropyl-6′-methyl-spiro[4,5-dihydrothieno[2,3-c]pyran-7,4′-piperidine]-4-ol]: on APOL1 G1, the IC50 is < 50 nM and the Emax was 110%. The IC50 on APOL1 is < 50 nM.
